The values below come from ChEMBL document CHEMBL4354834 (J Med Chem, 2020).

The term Ki denotes a dissociation constant, usually derived from enzyme kinetics or from competition with a known ligand. A word on the half-life: it is how long it takes for the measured level to halve. For orientation: bioavailability means dose-corrected exposure relative to a reference, in per cent. For orientation: AUC means concentration integrated over time.

Data set [1] in a line: Permeability of the compound across basolateral side to apical side in human Caco2 cells. It counts as ADME, cell-based. To be noted: Caco-2, read-out: permeability. A general note: Caco-2 monolayers are a common model of the intestinal barrier.
The target in another data set is T1, Coagulation factor XII (Homo sapiens, UniProt P00748).
T1 sequence (P00748 whole entry): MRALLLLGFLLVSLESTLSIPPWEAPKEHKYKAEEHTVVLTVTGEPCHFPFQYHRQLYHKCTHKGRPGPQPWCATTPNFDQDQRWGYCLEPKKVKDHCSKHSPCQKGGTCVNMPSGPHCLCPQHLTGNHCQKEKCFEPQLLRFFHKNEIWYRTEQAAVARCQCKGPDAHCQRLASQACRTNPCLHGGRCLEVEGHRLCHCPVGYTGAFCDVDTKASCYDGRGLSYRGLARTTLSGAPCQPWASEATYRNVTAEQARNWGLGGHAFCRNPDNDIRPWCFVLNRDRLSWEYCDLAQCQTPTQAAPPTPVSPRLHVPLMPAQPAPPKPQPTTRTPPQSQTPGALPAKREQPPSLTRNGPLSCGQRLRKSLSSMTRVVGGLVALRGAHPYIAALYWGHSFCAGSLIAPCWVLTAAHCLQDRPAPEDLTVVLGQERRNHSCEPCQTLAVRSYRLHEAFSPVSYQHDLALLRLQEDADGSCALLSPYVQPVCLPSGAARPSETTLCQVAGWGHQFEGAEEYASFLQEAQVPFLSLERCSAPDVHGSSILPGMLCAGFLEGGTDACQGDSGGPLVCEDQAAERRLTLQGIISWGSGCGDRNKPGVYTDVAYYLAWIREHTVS
Nature of the data set: Inhibition of activated human coagulation factor XII using H-(D)-CHT-Gly-Arg-pNA as substrate by spectrophotometry.

The nature of data set [2]: Metabolic stability in cynomolgus monkey liver microsomes assessed as half life. It counts as ADME, Macaca fascicularis, Microsome.
The target of data set [3] is Urokinase-type plasminogen activator (Homo sapiens, UniProt P00749). Nature of the data set: Inhibition of activated human urokinase using pyro-Glu-Gly-Arg-pNA as substrate by spectrophotometry.
Data set [4] can be described thus: Metabolic stability in human liver microsomes assessed as half life. In kind it is ADME, Microsome. A general note: Liver microsomes are a subcellular fraction often used to study metabolism.
The target in a further data set is Plasminogen (Homo sapiens, UniProt P00747). Nature of the data set: Inhibition of human plasmin using H-(D)-Val-Leu-Lys-pNA as substrate by spectrophotometry.
The target in a further data set is T2, Coagulation factor VII (Homo sapiens, UniProt P08709).
T2 sequence (P08709 whole entry): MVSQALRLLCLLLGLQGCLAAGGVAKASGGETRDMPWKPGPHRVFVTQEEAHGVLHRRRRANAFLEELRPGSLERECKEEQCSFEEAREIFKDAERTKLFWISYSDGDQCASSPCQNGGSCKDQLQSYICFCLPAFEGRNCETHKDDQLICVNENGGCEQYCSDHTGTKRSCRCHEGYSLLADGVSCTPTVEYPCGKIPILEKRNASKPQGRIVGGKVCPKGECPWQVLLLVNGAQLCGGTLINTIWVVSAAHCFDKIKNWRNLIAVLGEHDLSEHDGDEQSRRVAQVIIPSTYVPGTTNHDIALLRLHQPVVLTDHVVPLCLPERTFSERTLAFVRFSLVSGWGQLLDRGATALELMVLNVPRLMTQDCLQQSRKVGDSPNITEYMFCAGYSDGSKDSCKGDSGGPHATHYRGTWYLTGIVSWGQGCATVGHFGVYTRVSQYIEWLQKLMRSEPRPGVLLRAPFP
Nature of the data set: Inhibition of activated human coagulation factor VII using H-(D)-Ile-Pro-Arg-pNA as substrate by spectrophotometry.

Data set [5] is described as follows: Permeability of the compound across apical side to basolateral side in human Caco2 cells. In kind it is ADME, cell-based. To be noted: Caco-2, read-out: permeability.
The nature of data set [6]: Metabolic stability in rat liver microsomes assessed as half life. In kind it is ADME, Microsome.
Another data set has as its target Trypsin (Homo sapiens, UniProt P07477+P07478+P35030). Nature of the data set: Inhibition of human trypsin using N-benzoyl-Ile-Glu-OH-OMe-Gly-Arg-pNA as substrate by spectrophotometry. It counts as protein assay.
In a further data set the target is Coagulation factor IX (Homo sapiens, UniProt P00740). Nature of the data set: Inhibition of activated human coagulation factor IX using 7-amino-4-methylcoumarin as substrate by spectrofluorimetry.
The target in another data set is Plasma kallikrein (Homo sapiens, UniProt P03952). Nature of the data set: Inhibition of human kallikrein using H-(D)-Pro-Phe-Arg-pNA as substrate by spectrophotometry.
The target in the next data set is Coagulation factor X (Homo sapiens, UniProt P00742). Nature of the data set: Inhibition of activated human coagulation factor X using N-benzoyl-Ile-Glu-OH-OMe-Gly-Arg-pNA as substrate by spectrophotometry.
In the next data set the target is Prothrombin (Homo sapiens, UniProt P00734). Nature of the data set: Inhibition of human alpha-thrombin using pyro-Glu-Pro-Arg-pNA as substrate by spectrophotometry.
A short description of data set [7]: Metabolic stability in dog liver microsomes assessed as half life. It counts as ADME, Canis lupus familiaris, Microsome.
Data set [8] addresses Vitamin K-dependent protein C (Homo sapiens, UniProt P04070). Nature of the data set: Inhibition of activated human protein C using pyro-Glu-Pro-Arg-pNA as substrate by spectrophotometry.
Data set [9] is described as follows: Oral bioavailability in dog at 0.62 mg/kg. In kind it is ADME, organism-based, Canis lupus familiaris. To be noted: in vivo.
A short description of data set [10]: Volume of distribution at steady state in cynomolgus monkey at 0.71 mg/kg, iv or 1.52 mg/kg, po. In kind it is ADME, organism-based, Macaca fascicularis. As to conditions: in vivo, read-out: Vdss.
Data set [11] can be described thus: AUC in cynomolgus monkey at 1.52 mg/kg, po. It counts as ADME, organism-based, Macaca fascicularis. To be noted: in vivo.
A short description of data set [12]: Clearance in cynomolgus monkey at 0.71 mg/kg, iv or 1.52 mg/kg, po. To be noted: in vivo. In kind it is ADME, organism-based, Macaca fascicularis.
Data set [13] is described as follows: Oral bioavailability in cynomolgus monkey at 1.52 mg/kg. As to conditions: in vivo. In kind it is ADME, organism-based, Macaca fascicularis.
A short description of data set [14]: Protein binding in dog. It counts as ADME, Canis lupus familiaris. To be noted: read-out: PB (converted).
Data set [15] is described as follows: Clearance in rat at 0.55 mg/kg, iv or 1.10 mg/kg, po. In kind it is ADME, organism-based. As to conditions: in vivo.
Data set [16] is described as follows: Half life in dog at 0.40 mg/kg, iv or 0.62 mg/kg, po. In kind it is ADME, organism-based, Canis lupus familiaris. As to conditions: in vivo.
The nature of data set [17]: Oral bioavailability in rat at 1.10 mg/kg. In kind it is ADME, organism-based. To be noted: in vivo, 1.1 mg/kg.
Data set [18] can be described thus: Clearance in dog at 0.40 mg/kg, iv or 0.62 mg/kg, po. In kind it is ADME, organism-based, Canis lupus familiaris. To be noted: in vivo, 0.4 mg/kg.
Data set [19] in a line: Volume of distribution at steady state in rat at 0.55 mg/kg, iv or 1.10 mg/kg, po. In kind it is ADME, organism-based. As to conditions: in vivo, read-out: Vdss.
Data set [20] in a line: Half life in cynomolgus monkey at 0.71 mg/kg, iv or 1.52 mg/kg, po. In kind it is ADME, organism-based, Macaca fascicularis. To be noted: in vivo.
Data set [21] can be described thus: Protein binding in cynomolgus monkey. As to conditions: read-out: PB (converted). In kind it is ADME, Macaca fascicularis.
Data set [22] can be described thus: AUC in dog at 0.62 mg/kg, po. In kind it is ADME, organism-based, Canis lupus familiaris. As to conditions: in vivo.
Data set [23] is described as follows: AUC in rat at 1.10 mg/kg, po. As to conditions: in vivo, 1.1 mg/kg. It counts as ADME, organism-based.
The nature of data set [24]: Volume of distribution at steady state in dog at 0.40 mg/kg, iv or 0.62 mg/kg, po. It counts as ADME, organism-based, Canis lupus familiaris. As to conditions: in vivo, 0.4 mg/kg, read-out: Vdss.
Data set [25] is described as follows: Protein binding in rat. In kind it is ADME. To be noted: plasma, read-out: PB (converted).
Data set [26] can be described thus: Half life in rat at 0.55 mg/kg, iv or 1.10 mg/kg, po. In kind it is ADME, organism-based. As to conditions: in vivo.

Sequence of Coagulation factor X (P00742 41-179 limits assumed): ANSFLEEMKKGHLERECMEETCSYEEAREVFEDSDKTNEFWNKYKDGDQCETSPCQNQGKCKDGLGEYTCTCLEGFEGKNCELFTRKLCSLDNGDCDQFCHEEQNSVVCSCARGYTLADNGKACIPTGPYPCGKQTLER
Sequence of Coagulation factor X (P00742 235-488 limits assumed): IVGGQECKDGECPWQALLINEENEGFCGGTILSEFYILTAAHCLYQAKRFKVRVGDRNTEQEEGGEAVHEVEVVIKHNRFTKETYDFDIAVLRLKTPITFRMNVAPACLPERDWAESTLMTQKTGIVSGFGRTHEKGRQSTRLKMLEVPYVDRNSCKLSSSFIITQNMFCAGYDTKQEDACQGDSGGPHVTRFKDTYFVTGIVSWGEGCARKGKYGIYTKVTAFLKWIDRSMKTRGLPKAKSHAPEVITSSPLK
Sequence of Plasma kallikrein (P03952 20-390 limits assumed): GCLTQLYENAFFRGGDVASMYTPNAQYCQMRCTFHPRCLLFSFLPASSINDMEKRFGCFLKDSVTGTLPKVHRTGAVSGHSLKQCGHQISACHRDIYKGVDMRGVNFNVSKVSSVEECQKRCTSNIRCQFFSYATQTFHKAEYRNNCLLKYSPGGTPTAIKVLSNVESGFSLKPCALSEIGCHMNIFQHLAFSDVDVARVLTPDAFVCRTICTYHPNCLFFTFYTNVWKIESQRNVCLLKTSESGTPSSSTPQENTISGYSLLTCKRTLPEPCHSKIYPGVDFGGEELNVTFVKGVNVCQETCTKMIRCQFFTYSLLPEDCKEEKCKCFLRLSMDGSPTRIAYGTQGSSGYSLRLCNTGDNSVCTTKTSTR
Sequence of Plasma kallikrein (P03952 391-638 limits assumed): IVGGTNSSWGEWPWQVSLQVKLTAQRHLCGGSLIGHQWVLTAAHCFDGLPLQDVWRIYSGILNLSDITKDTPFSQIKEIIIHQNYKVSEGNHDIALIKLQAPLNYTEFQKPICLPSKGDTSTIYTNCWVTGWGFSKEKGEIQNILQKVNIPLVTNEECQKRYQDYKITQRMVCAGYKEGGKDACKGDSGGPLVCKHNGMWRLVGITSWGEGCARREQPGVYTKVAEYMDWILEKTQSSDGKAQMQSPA
Sequence of Coagulation factor IX (P00740 47-191 limits assumed): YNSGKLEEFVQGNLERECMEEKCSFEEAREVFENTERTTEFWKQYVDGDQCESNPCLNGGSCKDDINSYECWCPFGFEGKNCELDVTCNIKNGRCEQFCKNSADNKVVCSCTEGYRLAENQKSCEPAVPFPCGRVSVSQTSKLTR
Sequence of Coagulation factor IX (P00740 227-461 limits assumed): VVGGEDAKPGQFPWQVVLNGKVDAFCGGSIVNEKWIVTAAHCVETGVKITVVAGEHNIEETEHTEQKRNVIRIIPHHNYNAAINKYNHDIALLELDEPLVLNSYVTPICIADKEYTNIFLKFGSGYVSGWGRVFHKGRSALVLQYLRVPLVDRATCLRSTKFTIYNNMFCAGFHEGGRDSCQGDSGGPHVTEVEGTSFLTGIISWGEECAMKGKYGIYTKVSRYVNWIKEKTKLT
Sequence of Plasminogen (P00747 97-580 limits assumed): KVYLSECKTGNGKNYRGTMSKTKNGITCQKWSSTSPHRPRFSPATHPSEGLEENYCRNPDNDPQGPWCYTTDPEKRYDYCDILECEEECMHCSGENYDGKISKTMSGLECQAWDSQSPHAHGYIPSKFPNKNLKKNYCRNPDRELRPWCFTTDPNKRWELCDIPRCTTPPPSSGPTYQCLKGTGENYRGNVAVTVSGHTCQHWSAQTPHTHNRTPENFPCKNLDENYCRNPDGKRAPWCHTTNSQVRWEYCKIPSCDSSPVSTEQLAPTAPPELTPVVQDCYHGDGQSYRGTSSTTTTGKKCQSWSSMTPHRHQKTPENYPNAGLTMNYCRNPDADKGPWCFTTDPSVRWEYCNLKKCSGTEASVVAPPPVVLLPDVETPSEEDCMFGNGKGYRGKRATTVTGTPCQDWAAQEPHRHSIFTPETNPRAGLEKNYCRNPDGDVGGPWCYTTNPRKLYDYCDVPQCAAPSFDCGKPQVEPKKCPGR
Sequence of Plasminogen (P00747 581-810 limits assumed): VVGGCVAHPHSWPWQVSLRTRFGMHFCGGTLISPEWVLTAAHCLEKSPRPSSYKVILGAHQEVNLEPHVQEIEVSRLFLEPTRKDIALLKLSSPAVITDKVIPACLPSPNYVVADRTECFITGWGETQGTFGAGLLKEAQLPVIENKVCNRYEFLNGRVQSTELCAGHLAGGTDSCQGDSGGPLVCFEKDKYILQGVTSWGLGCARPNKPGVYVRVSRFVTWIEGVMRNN
Sequence of Vitamin K-dependent protein C (P04070 43-197 limits assumed): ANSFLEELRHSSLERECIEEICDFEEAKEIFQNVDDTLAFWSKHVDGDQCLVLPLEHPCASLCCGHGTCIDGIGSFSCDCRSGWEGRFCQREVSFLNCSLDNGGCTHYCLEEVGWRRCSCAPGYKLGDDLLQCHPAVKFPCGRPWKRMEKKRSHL
Sequence of Vitamin K-dependent protein C (P04070 212-461 limits assumed): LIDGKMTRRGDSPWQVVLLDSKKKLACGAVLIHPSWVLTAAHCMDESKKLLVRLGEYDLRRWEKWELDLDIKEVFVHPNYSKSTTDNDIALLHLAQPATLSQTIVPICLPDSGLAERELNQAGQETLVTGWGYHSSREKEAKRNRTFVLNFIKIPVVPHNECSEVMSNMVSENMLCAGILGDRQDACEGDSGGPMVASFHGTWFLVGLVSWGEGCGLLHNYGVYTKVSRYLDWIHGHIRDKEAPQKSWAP

Regarding `COC(=O)Nc1ccc2c(c1)NC(=O)[C@H](C)CCC[C@H](NC(=O)c1ncn(-c3cccc(Cl)c3F)c1C)c1cc-2ccn1.Cl.Cl`, the Papp B→A in data set [1] turned out to be 36.7 ×10⁻⁶ cm/s. The inhibition constant Ki is 2.53 µM at Coagulation factor XII; more than 15.1 µM in data set [3]; more than 15 µM at Plasminogen; more than 13.3 µM on Coagulation factor VII; more than 10 µM on Trypsin; more than 27.1 µM on Coagulation factor IX. In addition, the inhibitory constant (Ki) was 0.0063 µM at Plasma kallikrein, more than 13.3 µM at Coagulation factor X, more than 11.5 µM on Prothrombin and more than 21.5 µM in data set [8]. Besides, the half-life was 0.8 h in data set [2], 0.917 h in [4], 1.13 h in data set [6] and 1.22 h in [7]. The Papp A→B in [5] is less than 1.5 ×10⁻⁶ cm/s.
Consider `COC(=O)Nc1ccc2c(c1)NC(=O)[C@H](C)CCC[C@H](NC(=O)c1nnn(-c3cccc(Cl)c3F)c1C)c1cc-2ccn1.O=C(O)C(F)(F)F`, for which the bioavailability in [9] is 34%; in [13], 15%; in data set [17] it was 13 to 42%. Also, the values for the Vd in data set [10], in data set [19] and in [24] were 2.9 L/kg, 2.1 to 3.5 L/kg and 2.4 L/kg, respectively. The results for the area under the curve (AUC) in [11], in [22] and in data set [23] were 0.584 µM·h, 0.922 µM·h and 0.213 to 1.15 µM·h, respectively. The clearance in [12] is 9.9 mL/min/kg; in data set [15], 9 to 21 mL/min/kg; in [18], 5.4 mL/min/kg. For the same compound, the fraction unbound in [14] is 0.038; in data set [21], 0.055; in [25], 0.052. Also, the half-life was 4.8 h in data set [16], 4 h in data set [20] and 2.2 to 4.2 h in data set [26].
